Experimental data: ChEMBL document CHEMBL1158132, “26,27-cyclosterols and other polyoxygenated sterols from a marine sponge Topsentia sp” (2006)
In brackets after ≈: the same amount, converted by molar mass.

Assays:
Assay type in all cases: functional
Conditions in all cases: read-out: ED50 (the source's name)
[1] = tested on: XF498; experiment: Cytotoxicity against human XF498 cells
[2] = tested on: SK-MEL-2; experiment: Cytotoxicity against human SK-MEL-2 cells
[3] = tested on: HCT-15; experiment: Cytotoxicity against human HCT-15 cells
[4] = tested on: A549; experiment: Cytotoxicity against human A549 cells
[5] = tested on: SK-OV-3; experiment: Cytotoxicity against human SKOV3 cells

| Compound | EC50 [1] | EC50 [2] | EC50 [3] | EC50 [4] | EC50 [5] |
| --- | --- | --- | --- | --- | --- |
| CO[C@@H]1C=C2[C@@H]3CC[C@H]([C@H](C)/C=C/[C@@H](C)C(C)C)[C@@]3(C)CC[C@]2(O)[C@@]2(C)CC[C@H](O)C[C@]12O [TOPSENTISTEROL C3] | 4.7 µg/mL (≈ 10.2 µM) | 11.5 µg/mL (≈ 25 µM) | 4.3 µg/mL (≈ 9.33 µM) | 5.6 µg/mL (≈ 12.2 µM) | 7.8 µg/mL (≈ 16.9 µM) |
| CC(C)[C@@H](C)/C=C/[C@@H](C)[C@H]1CCC2=C3[C@H](O)[C@@H]4O[C@@]45C[C@@H](O)CC[C@]5(C)[C@H]3CC[C@@]21C | > 30 µg/mL | > 30 µg/mL | 17.9 µg/mL (≈ 41.8 µM) | > 30 µg/mL | 17.9 µg/mL (≈ 41.8 µM) |
| CC(C)[C@H](C)/C=C/[C@@H](C)[C@H]1CC[C@H]2C3=C(CC[C@]12C)[C@@]1(C)CC[C@H](O)C[C@@]12O[C@H]2[C@H]3O [TOPSENTISTEROL B4] | 19 µg/mL (≈ 44.3 µM) | 11.3 µg/mL (≈ 26.4 µM) | 14.1 µg/mL (≈ 32.9 µM) | 9.7 µg/mL (≈ 22.6 µM) | 7.8 µg/mL (≈ 18.2 µM) |
| CC(C)=C[C@@H](C)[C@H]1CC[C@@H]2[C@]1(C)CC[C@H]1[C@]23C=C[C@]2(CCCC[C@]12C)OO3 | > 30 µg/mL | 25.9 µg/mL (≈ 69.9 µM) | 21.4 µg/mL (≈ 57.7 µM) | 30 µg/mL (≈ 81 µM) | 19.4 µg/mL (≈ 52.4 µM) |
| C[C@H](CC[C@@H](C)[C@H]1CC[C@H]2C3=CC(=O)[C@@]4(O)C[C@@H](O)CC[C@]4(C)[C@@]3(O)CC[C@]12C)[C@@H]1C[C@H]1C [TOPSENTISTEROL C1] | 17.7 µg/mL (≈ 38.6 µM) | 11.3 µg/mL (≈ 24.6 µM) | 6.1 µg/mL (≈ 13.3 µM) | 7.7 µg/mL (≈ 16.8 µM) | 4.2 µg/mL (≈ 9.16 µM) |
| CC(C)[C@H](C)/C=C/[C@@H](C)[C@H]1CC[C@H]2C3=C(CC[C@]12C)[C@@]1(C)CC[C@H](O)CC1=CC3=O [TOPSENTISTEROL D3] | > 30 µg/mL | 24.5 µg/mL (≈ 59.7 µM) | 33.6 µg/mL (≈ 81.8 µM) | > 30 µg/mL | > 30 µg/mL |
| COc1cccc2c1C(=O)c1c(O)c3c(c(O)c1C2=O)C[C@@](O)(C(=O)CO)C[C@@H]3O[C@H]1C[C@H](N)[C@H](O)[C@H](C)O1 [DOXORUBICIN] | 0.07 µg/mL (≈ 0.129 µM) | 0.08 µg/mL (≈ 0.147 µM) | 0.13 µg/mL (≈ 0.239 µM) | 0.08 µg/mL (≈ 0.147 µM) | 0.19 µg/mL (≈ 0.35 µM) |
| CC(C)C/C=C/[C@@H](C)[C@H]1CC[C@@H]2[C@]1(C)CC=C1[C@]23C=C[C@]2(CCCC[C@]12C)OO3 | 11.4 µg/mL (≈ 28.7 µM) | 5.2 µg/mL (≈ 13.1 µM) | 4.7 µg/mL (≈ 11.9 µM) | 6.3 µg/mL (≈ 15.9 µM) | 6.3 µg/mL (≈ 15.9 µM) |
| CC(C)[C@H](C)/C=C/[C@@H](C)[C@H]1CCC2=C3[C@H](O)[C@@H]4O[C@@]45C[C@@H](O)CC[C@]5(C)[C@H]3CC[C@@]21C [TOPSENTISTEROL B5] | > 30 µg/mL | 5.5 µg/mL (≈ 12.8 µM) | 18.4 µg/mL (≈ 42.9 µM) | 13.9 µg/mL (≈ 32.4 µM) | 7.9 µg/mL (≈ 18.4 µM) |
| CC(C)C/C=C/[C@@H](C)[C@H]1CC[C@H]2C3=C(CC[C@]12C)[C@@]1(C)CC[C@H](O)CC1=CC3=O | > 30 µg/mL | > 30 µg/mL | 38.4 µg/mL (≈ 96.8 µM) | > 30 µg/mL | > 30 µg/mL |
| CC(C)[C@@H](C)/C=C/[C@@H](C)[C@H]1CC[C@@H]2[C@]1(C)CC[C@H]1[C@]23C=C[C@]2(CCCC[C@]12C)OO3 | 24.7 µg/mL (≈ 59.9 µM) | 19.4 µg/mL (≈ 47 µM) | 21.1 µg/mL (≈ 51.1 µM) | 17.5 µg/mL (≈ 42.4 µM) | 17.8 µg/mL (≈ 43.1 µM) |
| CCC(C)/C=C/[C@@H](C)[C@H]1CC[C@@H]2[C@]1(C)CC=C1[C@]23C=C[C@]2(CCCC[C@]12C)OO3 (stereo not given in full) [TOPSENTISTEROL A3] | 6.2 µg/mL (≈ 15.6 µM) | 4.6 µg/mL (≈ 11.6 µM) | 4.2 µg/mL (≈ 10.6 µM) | 5.4 µg/mL (≈ 13.6 µM) | 7.1 µg/mL (≈ 17.9 µM) |
